According to patent US5563037A, “Homogeneous method for assay of double-stranded nucleic acids using fluorescent dyes and kit useful therein” (Johnson & Johnson Clinical Diagnostics, Inc., priority 1995, dated 1996):

Legend:
[1] = target: double-stranded nucleic acids; test: Binding constant (Kb) of fluorescent dye with double-stranded nucleic acids; conditions: Kp from Molecular Probes catalog divided by 55
Excerpt: The fluorescent dyes useful herein are generally defined as unsymmetrical cyanine dyes having a binding constant (Kb) within the range of from about 1×104 to about 5×105 (molar^-1). As used to define Kb, "about" refers to a variance of 10%. The dyes are also water-soluble or water-dispersible so they can bind to the nucleic acids in the aqueous reaction mixture. Depending upon the anions used, the dyes may be dissolved in a water-miscible solvent.
Particularly useful fluorescent dyes are commercially available from Molecular Probes, Inc. having the trade names and Kp values listed in Table I below. However, this invention is not to be construed as limited to the particular Molecular Probes, Inc. dyes listed therein since these are but preferred dyes. The cations of these preferred dyes are also identified below by chemical structure. The compounds can include any suitable divalent anion, or two monovalent anions. Iodide is preferred. [drawing 3]
*The Kb values in the table were calculated by dividing the partitio
coefficient (Kp) reported in the Molecular Probes, Inc. catalog, page 224
by 55, the molarity of water.

HIV-I DNA [2] = test: Example 2: leuco dye color scores of amplified target in pouches; type: biochemical; conditions: dye added prior to amplification
Procedure: The method of this invention was compared to an amplification and detection method outside the scope of this invention, which was carried out using YOYO-1 (1 μmolar final concentration), a tetravalent fluorescent dye, in the buffered solution described above. This dye has the following structure: [drawing 4]
Amplification was carried out using self-contained chemical pouches such as those described in U.S. Pat. No. 5,229,297 (Schnipelsky et al). Those pouches contained the capture probe SEQ ID NO:5 attached to particles which were immobilized in a detection channel where reactions can take place.
The pouches were loaded with reagents, as follows:
The PCR reaction mixture of Example 1 (except the DNA polymerase) was made to a volume of 5472 μl. The resulting mixture was aliquoted into tubes A, B and C (1824 μl each) representing Samples A, B and C, respectively.
The sample in Tube A was diluted with buffer (220 μl) and subjected to amplification without any fluorescence dye present. The dye was added at the end of amplification for quantitative detection of the resulting products.
In addition to the PCR reagents, the sample in Tube B contained YOYO-1 fluorescent dye (0.1 μmolar) which had been added prior to amplification (220 μl of a 10 μmolar solution).
The sample in Tube C also contained YO-PRO-1 fluorescent dye (0.1 μmolar) which had been added prior to amplification (220 μl of a 10 μmolar solution).
The DNA polymerase (88 μl) and target HIV-I DNA target nucleic acid (220 μl) were then added to each tube, and the contents of the each of the three tubes were used to fill the PCR reagent compartment of eight pouches.
Amplification was carried out using the same procedures as in Example 1. The PCR protocol was similarly carried out for 40 cycles using a thermal cycler as follows:
1) Preheat to denature at 95° C. for 60 seconds,
priming and extension for 40 seconds at 63.5° C., and denaturation for 10 seconds at 95° C., and
3) final denaturation for 60 seconds at 95° C.
The results of amplification were detected in three ways: (1) color dye scores visually evaluated as 0 (no signal) to 10 (highest signal density), (2) ethidium bromide stained electrophoretic gels, and (3) fluorescence measured on a commercially available Perkin Elmer fluorimeter.
The noted color scores were obtained by using immobilized capture probes in the pouches with which the amplified target hybridized during incubation for 5 minutes at 42° C. The immobilized target was contacted with the conjugate solution (identified above) for 1 minute at 30° C., followed by the wash solution for 1 minute at 55° C. The leuco dye solution was then added at 30° C. and the resulting color signal was observed after two minutes incubation at 30° C. […]

HIV-I DNA [3] = test: Example 2: ethidium bromide stained electrophoretic gels of amplification products; type: biochemical; conditions: dye added prior to amplification
Procedure: The method of this invention was compared to an amplification and detection method outside the scope of this invention, which was carried out using YOYO-1 (1 μmolar final concentration), a tetravalent fluorescent dye, in the buffered solution described above. This dye has the following structure: [drawing 4] The PCR reaction mixture of Example 1 (except the DNA polymerase) was made to a volume of 5472 μl. The resulting mixture was aliquoted into tubes A, B and C (1824 μl each) representing Samples A, B and C, respectively. The sample in Tube A was diluted with buffer (220 μl) and subjected to amplification without any fluorescence dye present. The dye was added at the end of amplification for quantitative detection of the resulting products. In addition to the PCR reagents, the sample in Tube B contained YOYO-1 fluorescent dye (0.1 μmolar) which had been added prior to amplification (220 μl of a 10 μmolar solution). The sample in Tube C also contained YO-[…] fluorescent dye (0.1 μmolar) which had been added prior to amplification (220 μl of a 10 μmolar solution). The DNA polymerase (88 μl) and target HIV-I DNA target nucleic acid (220 μl) were then added to each tube, and the contents of the each of the three tubes were used to fill the PCR reagent compartment of eight pouches. Amplification was carried out using the same procedures as in Example 1. […] follows: The results of amplification were detected in three ways: (1) color dye scores visually evaluated as 0 (no signal) to 10 (highest signal density), (2) ethidium bromide stained electrophoretic gels, and (3) fluorescence measured on a commercially available Perkin Elmer fluorimeter. Electrophoresis was carried out using commercially available NuSieve 1.5%/Seakem Agarose 1% gels (modified to 2.5% agarose) and ethidium bromide stain. The samples were applied to the gels in conventional TBE buffer (4 μl/100 μl). Three replicate assays of each sample (A, B and C) were carried out using each detection means. The average result for each detection means was as follows: […]

HIV-I DNA [4] = test: Example 3: fluorescence after amplification with dye; usefulness / PCR inhibition; type: biochemical
Procedure: The primers used in Example 3 had the following sequences which are complementary to the gag region of HIV-I DNA: Amplification experiments like those of Example 2 were also carried out to evaluate the usefulness of several other conventional fluorescent dye stains. In these assays, primers identified above as SEQ ID NO:3 and SEQ ID NO:4 were used, as well as the probe identified as SEQ ID NO:6. […] Fluorescence was determined as described in Example 2 except that all amplified samples were mixed with a solution of YOYO-1 (0.1 μmolar) to provide a common minimum threshold of signal.

Q: Which Kd [1] does the source give for `C[n+]1c(C=C2C=CN(CCC[N+](C)(C)C)c3ccccc32)oc2ccccc21` [Compound E] here?
A: Its Kd is 6.67 µM.

Q: What about the “effect of dye on amplification (color scores)” value (HIV-I DNA [2]) of the same compound?
A: Its value is “not adversely affected”.

Q: And the “Average Color Score” value (HIV-I DNA [2]; leuco dye, 0 (no signal) to 10 (highest signal density), 40 cycles)?
A: The value was 6.

Q: And the “effect of dye on amplification (gel)” value (HIV-I DNA [3])?
A: Its value is “allowed amplification to proceed”.

Q: What about the “Positive/negative Gel Bands” value (HIV-I DNA [3]; 40 cycles) of the same compound?
A: Its value is 5 Positives out of 5 bands.

Q: And the “Fluorescent Signal” value (HIV-I DNA [4]; amplified samples mixed with YOYO-1 (0.1 μmolar))?
A: Its value is 16.

Q: And the “usefulness of dye / inhibition of PCR” value (HIV-I DNA [4]; dye in amplification)?
A: Its value is “useful”.
